Test systems include NCI-H23 lung; HOP-62 NSCLC; SK-OV-3 ovarian; HS 578T breast; SNB-75 CNS; SF-539 CNS; HCT-116 colon; BT-549 breast; NCI-H460 lung; MDA-MB-231 breast.
What all share (test): NCI anticancer screen, dose series, 48 h

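Step 1: Grow cells in 96-well plates. Step 2: Expose to compound for 48 hours at 5 concentrations. Step 3: Interpolate endpoints linearly; if unreached, use highest concentration. The concentration for full growth arrest is given as TGI.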 *1 amine or outer side, *2 acyl side, *3 side chain or, on linkers, in order; H or OH if unused. Where a SMILES comes first, the peptide text is derived from it. [ ]: non-standard residue; d: D form. X32 = C[C@H](N[*:1])C(=O)C(C)(C)C(=O)[*:2]; Hmpa(2S,3S) = CC[C@H](C)[C@H](O)C(=O)O; NMeY = CN[C@@H](Cc1ccc(O)cc1)C(=O)O; NMeL = CN[C@@H](CC(C)C)C(=O)O; NMeV = CN[C@H](C(=O)O)C(C)C; βAla = NCCC(=O)O

In PubChem BioAssay (NCI) one finds TGI data, which are given here for 8 compounds.

`C/C(=N\NC(=S)NCCCNC(=S)N/N=C(\C)c1ccccn1)c1ccccn1`: the TGI with NCI-H23 lung was more than 54.4 µM; with HOP-62 NSCLC it was 20.7 µM; in the assay with SK-OV-3 ovarian it was more than 35.1 µM; in the assay with HS 578T breast it was more than 100 µM; in the assay with SNB-75 CNS, 31.7 µM; in the assay on SF-539 CNS, 8.72 µM. In addition, the TGI with HCT-116 colon is 24 µM; in the assay with BT-549 breast, 21.9 µM; in the assay on NCI-H460 lung, 10.1 µM; with MDA-MB-231 breast, more than 49.9 µM.

On to `CCOC(=O)CCC(NC(=O)c1ccc(OCc2ccc3nc(-c4ccccc4)c(Cl)nc3c2)cc1)C(=O)OCC` (stereo not given), for which the TGI was more than 31.6 µM in the assay with NCI-H23 lung; more than 31.6 µM in the assay with HOP-62 NSCLC; more than 100 µM in the assay on SK-OV-3 ovarian; more than 31.6 µM in the assay on HS 578T breast; 30.3 µM in the assay on SNB-75 CNS; 28.7 µM in the assay with SF-539 CNS. In addition, the TGI in the assay with HCT-116 colon is more than 31.6 µM; in the assay with BT-549 breast, more than 31.6 µM; in the assay on NCI-H460 lung it was more than 31.6 µM; in the assay with MDA-MB-231 breast, more than 67.9 µM.

Turning to `O=[N+]([O-])c1ccc(N/N=C/c2ccc(OCCCCCCCCCCCO)cc2)c([N+](=O)[O-])c1`, the TGI is 45.8 µM in the assay with NCI-H23 lung; 19.6 µM with HOP-62 NSCLC; 11.6 µM with SK-OV-3 ovarian; 6.5 µM with HS 578T breast; 4.27 µM with SNB-75 CNS; 4.22 µM in the assay on SF-539 CNS. In addition, the TGI in the assay on HCT-116 colon is more than 43.7 µM; with BT-549 breast, 15.5 µM; with NCI-H460 lung it was 12.1 µM; in the assay with MDA-MB-231 breast it was more than 94.7 µM.

Turning to `O=c1/c(=C/c2ccc(-c3ccc(Cl)cc3Cl)o2)sc2n1[C@@H](c1ccc(Cl)cc1)C=C(c1cc(F)c(Cl)cc1Cl)N=2`, the TGI in the assay with NCI-H23 lung was more than 100 µM; in the assay on HOP-62 NSCLC it was 34.6 µM; in the assay with SK-OV-3 ovarian it was 61.7 µM; with HS 578T breast, more than 100 µM; in the assay on SNB-75 CNS, more than 100 µM; in the assay with SF-539 CNS, more than 100 µM. The TGI was more than 100 µM in the assay with HCT-116 colon, more than 100 µM in the assay with BT-549 breast, more than 100 µM in the assay with NCI-H460 lung and 59.2 µM in the assay with MDA-MB-231 breast.

Turning to `O=C1Oc2cc(O)cc(/C=C/c3ccc(O)cc3)c2[C@@]12c1c(O)cc(O)cc1OC2c1cccc(O)c1` (stereo not given in full), the TGI in the assay with NCI-H23 lung was 73.4 µM; in the assay with HOP-62 NSCLC, 65.5 µM; in the assay with SK-OV-3 ovarian, 93.5 µM; in the assay with HS 578T breast it was 56.6 µM; in the assay with SNB-75 CNS, more than 100 µM; with SF-539 CNS, more than 100 µM. The TGI was more than 100 µM with HCT-116 colon, more than 100 µM in the assay with BT-549 breast, 59.6 µM in the assay on NCI-H460 lung and 95.9 µM in the assay with MDA-MB-231 breast.

On to `CC[C@H](C)[C@@H]1OC(=O)CCNC(=O)[C@@H](C)NC(=O)C(C)(C)C(=O)[C@H](C)NC(=O)[C@H](Cc2ccc(OC)cc2)N(C)C(=O)[C@H](C(C)C)N(C)C(=O)CNC(=O)[C@H](CC(C)C)N(C)C(=O)CNC1=O` (cyclo(G[NMeL]G[NMeV][NMeY](Me)[X32][dA][βAla][Hmpa(2S,3S)])), for which the TGI was more than 50 µM in the assay with NCI-H23 lung; 10.6 µM in the assay with HOP-62 NSCLC; 4.11 µM with SK-OV-3 ovarian; 20.8 µM in the assay on HS 578T breast; 3.52 µM in the assay on SNB-75 CNS; more than 33.6 µM with SF-539 CNS. The TGI in the assay with HCT-116 colon is more than 27.8 µM; in the assay with BT-549 breast, 13.6 µM; with NCI-H460 lung it was more than 50 µM; in the assay with MDA-MB-231 breast, 11.2 µM.

For `CCCCn1c2c(n(CCCC)c1=S)-c1c(n(CCCC)c(=S)n1CCCC)SSc1c(n(CCCC)c(=S)n1CCCC)-c1c(n(CCCC)c(=S)n1CCCC)SSc1c(n(CCCC)c(=S)n1CCCC)-c1c(n(CCCC)c(=S)n1CCCC)SS2`, the TGI in the assay on NCI-H23 lung, in the assay on HOP-62 NSCLC, with SK-OV-3 ovarian, in the assay on HS 578T breast, in the assay with SNB-75 CNS and in the assay on SF-539 CNS was more than 50 µM in each case. For the same compound, the TGI in the assay with HCT-116 colon is more than 27.7 µM; in the assay with BT-549 breast, more than 50 µM; in the assay on NCI-H460 lung, more than 50 µM; with MDA-MB-231 breast, 8.67 µM.

In the case of `COc1ccc(C(=O)/C=C/c2cc(O)c(O)c(F)c2F)c(OC)c1`, the TGI was 41.7 µM in the assay with NCI-H23 lung; 92.7 µM with HOP-62 NSCLC; 98.1 µM in the assay with SK-OV-3 ovarian; more than 100 µM in the assay with HS 578T breast; 79.5 µM in the assay with SNB-75 CNS; 65.3 µM in the assay with SF-539 CNS. For the same compound, the TGI is 27.2 µM with HCT-116 colon, 70.5 µM in the assay on BT-549 breast, 22.8 µM in the assay on NCI-H460 lung and 58.2 µM in the assay on MDA-MB-231 breast.
